Test results taken from patent US20150030566A1, “ANTIMICROBIAL PEPTIDE COMPOSITIONS FOR PLANTS” (Stellenbosch University, priority 2012, published 2015).
Read-outs that look alike come from different tables or passages of the source. Non-standard residues stand in square brackets, D forms with d. Residues, ends and D or L forms follow the SMILES beside them. No end group written: not given here. Orn = NCCC[C@H](N)C(=O)O

Columns and labels:
Fusarium solani = experiment: Microdilution broth assay; format: cell-based; set-up: MIC against F. solani in PDB (n): unit not given beside the values; settings: for MIC against F. solani in PDB (n): potato dextrose broth (low salt PDB)
Protocol: (§1) Microdilution broth and agar assays were used to assess the antifungal activity of the cyclic decapeptides in liquid media and on solid (gel) media, respectively.
(§2) The antibacterial activity of the tyrocidines and gramicidin S against all the bacteria tested was determined by the methods described by Du Toit E A and Rautenbach M (2000) J. Microbiol. Methods, 42, 159-165. The antifungal activity of the tyrocidines against all the […] tested was determined by the methods described by Troskie A M, Vlok N M and Rautenbach M (2012) J. Microbiol. Methods, 91, 551-558.

Botrytis cinerea = experiment: Microdilution broth assay; format: cell-based; set-up: MIC + SEM / MIC against B. cinerea in PDB (n): unit not given beside the values
Protocol: as §1, §2

black foot disease = settings: field conditions; Halleen et al. 2007; cited from earlier work
[1] = tested on: Cylindrocarpon and Campylocarpon spp; settings: 13 fungicides evaluated; Halleen et al. 2007; cited from earlier work
[2] = potato dextrose broth (low salt PDB)

Row | Molecule | MIC against F. solani in PDB (n) (Fusarium solani) | MIC against B. cinerea in PDB (n) (Botrytis cinerea; [2]) | also measured
1 | Cyclo-(VOLfPWwNQW) (chain 1 V[Orn]L[dF]PW[dW]NQW; chain 2 V[Orn]L[dF]PW[dW]NQW; also: head-to-tail to a chain's N/C-terminus; listed as Bacillus aneurinolyticus) [TpcC] | 4.6 ± 0.9 (3) | 3.6 ± 0.2 (6) | decrease in activity from YTSB to PDB (Fusarium solani; F. solani, YTSB (high salt) vs PDB (low salt)): approximately twofold; decrease in activity from PDB to YTSB (Botrytis cinerea; B. cinerea, YTSB (high salt) vs PDB (low salt)): approximately twofold
2 | CCCCNC(=O)n1c(NC(=O)OC)nc2ccccc21 [benomyl] | – | – | protection of propagation material against black foot disease (black foot disease): failed to protect propagation against black foot disease under field conditions; in vitro mycelial inhibition [1]: able to effectively reduce mycelial growth in all fungal strains tested
3 | C=CCOC(Cn1ccnc1)c1ccc(Cl)cc1Cl (centres unmarked) [imazalil] | – | – | protection of propagation material against black foot disease (black foot disease): failed to protect propagation against black foot disease under field conditions; in vitro mycelial inhibition [1]: able to effectively reduce mycelial growth in all fungal strains tested
4 | CC(C)C[C@@H]1NC(=O)[C@H](CCCN)NC(=O)[C@H](C(C)C)NC(=O)[C@H](Cc2ccc(O)cc2)NC(=O)[C@H](CCC(N)=O)NC(=O)[C@H](CC(N)=O)NC(=O)[C@@H](Cc2ccccc2)NC(=O)[C@H](Cc2ccccc2)NC(=O)C2CCCN2C(=O)[C@@H](Cc2ccccc2)NC1=O (some centres unmarked) [TrcA, Cyclo-(VOLfPFfNQY)] (HELM PEPTIDE1{F.[dF].N.Q.Y.V.[Orn].L.[dF].[O=C(C1CCCN1[*:1])[*:2]]}$PEPTIDE1,PEPTIDE1,1:R1-10:R2$$$V2.0) | 4.0 ± 0.4 (3) | – | MIC against B. cinerea in PDB (n) (Botrytis cinerea): 5.2 ± 0.6 (6)
5 | Cyclo-(VOLfPWwNQY) (chain 1 V[Orn]L[dF]PW[dW]NQY; chain 2 V[Orn]L[dF]PW[dW]NQY; also: head-to-tail to a chain's N/C-terminus; listed as Bacillus aneurinolyticus) [TrcC] | 4.3 ± 0.4 (3) | 3.5 ± 0.2 (6) | –
6 | Cyclo-(VKLfPWwNQY) (chain 1 VKL[dF]PW[dW]NQY; chain 2 VKL[dF]PW[dW]NQY; also: head-to-tail to a chain's N/C-terminus; listed as Bacillus aneurinolyticus) [TrcC1] | 32 ± 2.8 (3) | 8.9 ± 1.5 (3) | –
7 | Cyclo-(VOLfP(W,f)NQY) (VXLFPWFNQY; HELM PEPTIDE1{V.[Orn].L.[dF].P.W.[dF].N.Q.Y}$PEPTIDE1,PEPTIDE1,1:R1-10:R2$$$V2.0; SMILES CC(C)C[C@@H]1NC(=O)[C@H](CCCN)NC(=O)[C@H](C(C)C)NC(=O)[C@H](Cc2ccc(O)cc2)NC(=O)[C@H](CCC(N)=O)NC(=O)[C@H](CC(N)=O)NC(=O)[C@@H](Cc2ccccc2)NC(=O)[C@H](Cc2c[nH]c3ccccc23)NC(=O)[C@@H]2CCCN2C(=O)[C@@H](Cc2ccccc2)NC1=O) [TrcB/B′] | 11 ± 4.0 (3) | 5.1 ± 1.0 (6) | –
8 | Cyclo-(VKLfP(W,f)NQY) (VKLFPWFNQY; HELM PEPTIDE1{V.K.L.[dF].P.W.[dF].N.Q.Y}$PEPTIDE1,PEPTIDE1,1:R1-10:R2$$$V2.0; SMILES CC(C)C[C@@H]1NC(=O)[C@H](CCCCN)NC(=O)[C@H](C(C)C)NC(=O)[C@H](Cc2ccc(O)cc2)NC(=O)[C@H](CCC(N)=O)NC(=O)[C@H](CC(N)=O)NC(=O)[C@@H](Cc2ccccc2)NC(=O)[C@H](Cc2c[nH]c3ccccc23)NC(=O)[C@@H]2CCCN2C(=O)[C@@H](Cc2ccccc2)NC1=O) [TrcB1/B1′] | 5.9 ± 0.6 (3) | 3.6 ± 0.1 (6) | –
9 | CCCN(CCOc1c(Cl)cc(Cl)cc1Cl)C(=O)n1ccnc1.CCCN(CCOc1c(Cl)cc(Cl)cc1Cl)C(=O)n1ccnc1.CCCN(CCOc1c(Cl)cc(Cl)cc1Cl)C(=O)n1ccnc1.CCCN(CCOc1c(Cl)cc(Cl)cc1Cl)C(=O)n1ccnc1.[Cl][Mn][Cl] [prochloraz manganese chloride] | – | – | protection of propagation material against black foot disease (black foot disease): failed to protect propagation against black foot disease under field conditions; in vitro mycelial inhibition [1]: able to effectively reduce mycelial growth in all fungal strains tested
10 | Cyclo-(VOLfPFfNQF) (chain 1 V[Orn]L[dF]PF[dF]NQF; chain 2 V[Orn]L[dF]PF[dF]NQF; also: head-to-tail to a chain's N/C-terminus; listed as Bacillus aneurinolyticus) [PhcA] | 7.2 ± 1.0 (3) | 6.9 ± 1.4 (5) | loss of activity from PDB to YTSB (Fusarium solani; F. solani, PDB (low salt) vs YTSB (high salt)): ~5 fold; loss of activity from PDB to YTSB (Botrytis cinerea; B. cinerea, PDB (low salt) vs YTSB (high salt)): ~2 fold
11 | Cyclo-(VKLfPFfNQY) (chain 1 VKL[dF]PF[dF]NQY; chain 2 VKL[dF]PF[dF]NQY; also: head-to-tail to a chain's N/C-terminus; listed as Bacillus aneurinolyticus) [TrcA1] | 7.9 ± 0.7 (3) | 4.1 ± 0.7 (6) | –
